The record followed here is patent publication US20220015361A1, “COMPOSITIONS COMPRISING HALAUXIFEN AND OTHER HERBICIDES AND METHODS THEREOF” (DOW AGROSCIENCES LLC, priority 2018, published 2022).

The test system of the test is ERISU (Conyza sumatrensis, Sumatran fleabane). The test can be described thus: greenhouse post-emergence foliar weed control, visual score 0-100 percent. It is filed as in vivo. Conditions: 49 gai/ha. From the text:
Results in Examples are greenhouse trial results.
Seeds or nutlets of the desired test plant species were planted in a soil matrix prepared by mixing a loam or sandy loam soil (e.g., 28.6 percent silt, 18.8 percent clay, and 52.6 percent sand, with a pH of about 5.8 and an organic matter content of about 1.8 percent) and calcareous grit in an 80 to 20 ratio. The soil matrix was contained in plastic pots with a volume of 1 quart and a surface area of 83.6 cm2. When required to ensure good germination and healthy plants, a fungicide treatment and/or other chemical or physical treatment was applied. The plants were grown for 8-22 days in a greenhouse with an approximate 14 h photoperiod which was maintained at about 29° C. during the day and 26° C. during the night. Nutrients (Peters Excel® 15-5-15 5-Ca 2-Mg and iron chelate) were applied in the irrigation solution as needed and water was added on a regular basis. Supplemental lighting was provided with overhead metal halide 1000-Watt lamps as necessary. The plants were employed for testing when they reached the first through fourth true leaf stage.
Treatments comprised of the acid or esters of halauxifen-methyl (methyl 4-amino-3-chloro-6-(4-chloro-2-fluoro-3-methoxyphenyl)picolinate), each formulated as an SC (suspension concentrate), and various herbicidal components alone and in combination. A form of the compound of Formula I were applied on an acid equivalent basis.
Treatment requirements were calculated based upon the rates being tested, the concentration of active ingredient or acid equivalent in the formulation, and a 12 mL application volume at a rate of 187 L/ha.
For treatments comprised of formulated and technical compounds, weighed amounts of the technical materials were placed individually in 25 mL glass vials and dissolved in a volume of 97:3 v/v acetone/DMSO to obtain 12× stock solutions, and measured amounts of the formulated compounds were placed individually in 25 mL glass vials and diluted in a volume of 1.5% (v/v) crop oil concentrate or water to obtain 12× stock solutions. […] As required, additional water and/or 97:3 v/v acetone/DMSO was added to individual application solutions so that the final acetone and DMSO concentrations of the application solutions being compared were 8.1% and 0.25%, respectively.
All stock solutions and applications solutions were visually inspected for compound compatibility prior to application. Spray solutions were applied to the plant material with an overhead Mandel track sprayer equipped with an 8002E nozzle calibrated to deliver 187 L/ha over an application area of 0.503 m2 at a spray height of 18 to 20 inches (46 to 50 cm) above average plant canopy height. Control plants were sprayed in the same manner with the solvent blank.
The treated plants and control plants were placed in a greenhouse as described above and watered by sub-irrigation to prevent wash-off of the test compounds. […]
Table 1 illustrates weed control for foliar applications of compositions comprising halauxifen-methyl+2,4-D-dimethylammonium (2,4-D-DMA)+saflufenacil on various broadleaf weeds. […] The compositions disclosed herein can be used in burndown and fallow crop applications or in herbicide tolerant crops. These compositions can be used for broad-spectrum control of broadleaf weeds including, but not limited to, ALS, auxinic, HPPD, PPO, saflufenacil and glyphosate resistant broadleaf weeds. The compositions disclosed herein can have utility in AAD1 and AAD12 monocot and dicot crops whereby there is crop tolerance to all 3 modes of action, providing growers with a solution to control susceptible and resistant broadleaf weeds, as well as to delay the development of resistance by the use of 3 modes of action product. The compositions disclosed herein can be used in non-crop and R&P/IVM situations, post directed in perennial crops, and potentially across many crops where there is tolerance to all 3 modes of action.

With `CC(C)N(C)S(=O)(=O)NC(=O)c1cc(-n2c(=O)cc(C(F)(F)F)n(C)c2=O)c(F)cc1Cl` [saflufenacil, 2-chloro-5-[3,6-dihydro-3-methyl-2,6-dioxo-4-(trifluoromethyl)-1(2H)-pyrimidinyl]-4-fluoro-N-[[methyl(1-methylethyl)amino]sulfonyl]benzamide], the “Chem 2 Actual Mean % Weed Control” value reads like this: (Trial 1, ERISU, 17DAA) 52.50%; (Trial 1, ERISU, 28DAA) 66.25%; (Trial 1, ERISU, 43DAA) 77.50%; (Trial 2, ERISU, 17DAA) 66.25%; (Trial 2, ERISU, 28DAA) 97.50%; (Trial 2, ERISU, 43DAA) 98.25%.
